This note sets out measurements from US9856254B2, “Alkoxy substituted imidazoquinolines” (3M INNOVATIVE PROPERTIES COMPANY, priority 2003, dated 2018).

Where “and” joins values, the source holds several entries; their conditions need not be identical. Identical values can stand only once. Counter-ions that a name gives are not always drawn.

Take `CCOCc1nc2c(N)nc3cc(OCCCCCCNC(=O)NC(C)C)ccc3c2n1CC(C)(C)NC(=O)NC(C)C` [Example 369, N-(2-{4-Amino-2-(ethoxymethyl)-7-[(6-{[(isopropylamino)carbonyl]amino}hexyl)oxy]-1H-imidazo[4,5-c]quinolin-1-yl}-1,1-dimethylethyl)-N′-isopropylurea]: the melting point (as a rule, the temperature, or range, at which the solid turns liquid) was 205 to 209 °C.
The value for `CCCn1c(COCC)nc2c(N)nc3cc(OC4CCN(C(C)=O)CC4)ccc3c21` [Example 560, 7-[(1-Acetylpiperidin-4-yl)oxy]-2-(ethoxymethyl)-1-propyl-1H-imidazo[4,5-c]quinolin-4-amine] was 178 to 179.5 °C.
With `CCOCc1nc2c(N)nc3cc(OC4CCN(C(=O)OC(C)(C)C)CC4)ccc3c2n1CC(C)(C)O` [Example 563, tert-Butyl 4-{[4-amino-2-(ethoxymethyl)-1-(2-hydroxy-2-methylpropyl)-1H-imidazo[4,5-c]quinolin-7-yl]oxy}piperidine-1-carboxylate], the melting point is 214 to 215 °C (dec.).
Under `CCCn1c(COC)nc2c(N)nc3ccc(OCC(=O)N4CCOCC4)cc3c21` [Example 557, 2-(Methoxymethyl)-8-(2-morpholin-4-yl-2-oxoethoxy)-1-propyl-1H-imidazo[4,5-c]quinolin-4-amine] stands 201 to 204 °C.
Take `CCCCc1nc2c(N)nc3ccc(OCCNC(=O)CC)cc3c2n1C` [Example 43, N-[2-(4-Amino-2-butyl-1-methyl-1H-imidazo[4,5-c]quinolin-8-yloxy)ethyl]propanamide]: the melting point is 250 to 255 °C (dec.).
Molecule `CCCn1c(COCC)nc2c(N)nc3cc(OC4CCN(C(=O)NC(C)C)CC4)ccc3c21` [Example 417, 4-{[4-Amino-2-(ethoxymethyl)-1-propyl-1H-imidazo[4,5-c]quinolin-7-yl]oxy}-N-isopropylpiperidine-1-carboxamide] registered a melting point of 163 to 164.5 °C.
`CCCn1c(COCC)nc2c(N)nc3cc(OC4CCN(C(=O)OC(C)(C)C)CC4)ccc3c21` [Example 415, tert-Butyl 4-{[4-amino-2-(ethoxymethyl)-1-propyl-1H-imidazo[4,5-c]quinolin-7-yl]oxy}piperidine-1-carboxylate] had a melting point of 194 to 195 °C.
Take `CCc1nc2c(N)nc3cc(OCCNC(C)=O)ccc3c2n1CC1CCOCC1` [Example 652, N-(2-{[4-Amino-2-ethyl-1-(tetrahydro-2H-pyran-4-ylmethyl)-1H-imidazo[4,5-c]quinolin-7-yl]oxy}ethyl)acetamide]: the melting point fell in the range of 165 to 167 °C.
Turning to `CCCn1c(CCOC)nc2c(N)nc3cc(OC(=O)NC(C)C)ccc3c21` [Example 366, 4-Amino-2-(2-methoxyethyl)-1-propyl-1H-imidazo[4,5-c]quinolin-7-yl isopropylcarbamate], the melting point was in the range of 144 to 146 °C.
`CCCc1nc2c(N)nc3cc(OCC(=O)c4ccccc4)ccc3c2n1CC(C)C` [Example 1, 2-(4-Amino-1-(2-methylpropyl)-2-propyl-1H-imidazo[4,5-c]quinolin-7-yloxy)-1-phenylethanone] came in with a melting point of 178 to 180 °C.
`CCOCc1nc2c(N)nc3cc(OCCCN4CCCC4=O)ccc3c2n1CCCCNC(=O)NC(C)C` [Example 399, N-(4-{4-Amino-2-(ethoxymethyl)-7-[3-(2-oxopyrrolidin-1-yl)propoxy]-1H-imidazo[4,5-c]quinolin-1-yl}butyl)-N′-isopropylurea] registered a melting point of 98 to 101 °C.
The value for `CCCn1c(COCC)nc2c(N)nc3ccc(OCCNS(C)(=O)=O)cc3c21` [Example 3, N-[2-(4-Amino-2-ethoxymethyl-1-propyl-1H-imidazo[4,5-c]quinolin-8-yloxy)ethyl]methanesulfonamide] was 178 to 179.5 °C and 182 to 184.5 °C; that for `Cc1nc2c(N)nc3cc(OCCC4CCN(C(=O)C(C)C)CC4)ccc3c2n1CC(C)C` [Example 26, 1-(4-{2-[4-Amino-2-methyl-1-(2-methylpropyl)-1H-imidazo[4,5-c]quinolin-7-yloxy]ethyl}piperidin-1-yl)-2-methylpropan-1-one] was 205.1 to 207.1 °C; that for `CCCCc1nc2c(N)nc3ccc(OCCC4CCN(C(=O)C5CCCC5)CC4)cc3c2n1C` [Example 40, 2-Butyl-8-{2-[1-(cyclopentylcarbonyl)piperidin-4-yl]ethoxy}-1-methyl-1H-imidazo[4,5-c]quinolin-4-amine] was 147.2 to 150.1 °C.
For `CCCn1c(CCO)nc2c(N)nc3cc(OCCCNC(=O)C(C)C)ccc3c21` [Example 395, N-(3-{[4-Amino-2-(2-hydroxyethyl)-1-propyl-1H-imidazo[4,5-c]quinolin-7-yl]oxy}propyl)-2-methylpropanamide], the melting point lay within 190.5 to 192 °C.
`CCCc1nc2c(N)nc3cc(OCCCCCCNS(C)(=O)=O)ccc3c2n1CCCCNS(C)(=O)=O` [Example 47, N-(4-{4-Amino-7-[6-(methanesulfonylamino)hexyloxy]-2-propyl-1H-imidazo[4,5-c]quinolin-1-yl}butyl)methanesulfonamide]: the melting point was in the range of 138 to 140 °C.
`CCCn1c(COCC)nc2c(N)nc3ccc(OC4CCN(C(=O)C(C)C)CC4)cc3c21` [Example 414, 2-(Ethoxymethyl)-8-[(1-isobutyrylpiperidin-4-yl)oxy]-1-propyl-1H-imidazo[4,5-c]quinolin-4-amine] displayed a melting point of 177 to 179 °C.
The molecule `CCOCc1nc2c(N)nc3cc(OCCN)ccc3c2n1CC(C)(C)O` [Example 654, 1-[4-Amino-7-(2-aminoethoxy)-2-(ethoxymethyl)-1H-imidazo[4,5-c]quinolin-1-yl]-2-methylpropan-2-ol] registered a melting point of 163 to 165 °C.
Take `CCCn1c(COCC)nc2c(N)nc3ccc(OC(=O)N4CCOCC4)cc3c21` [Example 570, 4-Amino-2-(ethoxymethyl)-1-propyl-1H-imidazo[4,5-c]quinolin-8-yl morpholine-4-carboxylate]: the melting point fell in the range of 193 to 196 °C.
`CCOCc1nc2c(N)nc3cc(OCCCCCCNC(C)=O)ccc3c2n1CC(C)(C)NC(=O)NC(C)C` [Example 370, N-(6-{[4-Amino-2-(ethoxymethyl)-1-(2-{[(isopropylamino)carbonyl]amino}-2-methylpropyl)-1H-imidazo[4,5-c]quinolin-7-yl]oxy}hexyl)acetamide] registered a melting point of 90 to 110 °C.
With `CCOCc1nc2c(N)nc3cc(OC4CCNCC4)ccc3c2n1CC(O)CO` (stereo not drawn) (as salt: hydrochloride), the melting point was in the range of 278 to 280 °C.
In the case of `CCCn1c(CCOC)nc2c(N)nc3cc(OC4CCN(C(=O)C(C)C)CC4)ccc3c21` [Example 389, 7-[(1-Isobutyrylpiperidin-4-yl)oxy]-2-(2-methoxyethyl)-1-propyl-1H-imidazo[4,5-c]quinolin-4-amine], the melting point was 165 to 166 °C.
Molecule `CCCn1c(COCC)nc2c(N)nc3ccc(OCCCCCCNC(=O)NC(C)C)cc3c21` [Example 408, N-(6-{[4-Amino-2-(ethoxymethyl)-1-propyl-1H-imidazo[4,5-c]quinolin-8-yl]oxy}hexyl)-N′-isopropylurea] returned a melting point of 167 to 169 °C.
Under `COCCc1nc2c(N)nc3cc(OCC4OCCO4)ccc3c2n1CC(C)(C)O` [Example 564, 1-[4-Amino-7-(1,3-dioxolan-2-ylmethoxy)-2-(2-methoxyethyl)-1H-imidazo[4,5-c]quinolin-1-yl]-2-methylpropan-2-ol] stands 131 to 136 °C.
Take `Cc1nc2c(N)nc3cc(OCCC4CCN(C(=O)N5CCOCC5)CC4)ccc3c2n1CC(C)C` [Example 28, 2-Methyl-1-(2-methylpropyl)-7-{2-[1-(morpholin-4-ylcarbonyl)piperidin-4-yl]ethoxy}-1H-imidazo[4,5-c]quinolin-4-amine]: the melting point lay in the range of 205 to 208 °C.
Turning to `CCCCc1nc2c(N)nc3ccc(OCCC4CCNCC4)cc3c2n1C` [Example 38, 2-Butyl-1-methyl-8-(2-piperidin-4-ylethoxy)-1H-imidazo[4,5-c]quinolin-4-amine], the melting point is 210 to 212 °C.
Take `CCCCc1nc2c(N)nc3ccc(OCC(=O)N4CCOCC4)cc3c2n1C` [Example 32, 2-Butyl-1-methyl-8-(2-morpholin-4-yl-2-oxoethoxy)-1H-imidazo[4,5-c]quinolin-4-amine]: the melting point is 256.8 to 257.2 °C.
The molecule `CCCn1c(COCC)nc2c(N)nc3ccc(OC4CCN(C(=O)OC(C)(C)C)CC4)cc3c21` [Example 410, tert-Butyl 4-{[4-amino-2-(ethoxymethyl)-1-propyl-1H-imidazo[4,5-c]quinolin-8-yl]oxy}piperidine-1-carboxylate] returned a melting point of 179.5 to 181 °C.
Under `CCCn1c(COCC)nc2c(N)nc3ccc(OCCNC(=O)C4CCCO4)cc3c21` (stereo not drawn) [Example 6, N-(2-{[4-Amino-2-(ethoxymethyl)-1-propyl-1H-imidazo[4,5-c]quinolin-8-yl]oxy}ethyl)tetrahydrofuran-2-carboxamide] stands 202.5 to 204.5 °C.
In the case of `CCc1nc2c(N)nc3cc(OCCN4CCOCC4)ccc3c2n1CC1CCOCC1` [Example 568, 2-Ethyl-7-(2-morpholin-4-ylethoxy)-1-(tetrahydro-2H-pyran-4-ylmethyl)-1H-imidazo[4,5-c]quinolin-4-amine], the melting point was in the range of 230 to 232 °C.
With `CCc1nc2c(N)nc3cc(OCC(=O)N4CCOCC4)ccc3c2n1CC1CCOCC1` [Example 553, 2-Ethyl-7-(2-morpholin-4-yl-2-oxoethoxy)-1-(tetrahydro-2H-pyran-4-ylmethyl)-1H-imidazo[4,5-c]quinolin-4-amine], the melting point lay within 245 to 247 °C.
For the molecule `CCOCc1nc2c(N)nc3cc(OCCN)ccc3c2n1CC(O)CO` (stereo not drawn) (as salt: hydrochloride) [Example 373, 3-[4-Amino-7-(2-aminoethoxy)-2-(ethoxymethyl)-1H-imidazo[4,5-c]quinolin-1-yl]propane-1,2-diol dihydrochloride], the melting point lay within 221 to 223 °C.
Molecule `CCCc1nc2c(N)nc3cc(OCCCNC(=O)OC(C)(C)C)ccc3c2n1CC(C)C` [Example 7, tert-Butyl 3-{[4-amino-1-(2-methylpropyl)-2-propyl-1H-imidazo[4,5-c]quinolin-7-yl]oxy}propylcarbamate] displayed a melting point of 162.5 to 164 °C.
